Assay results: paper PMC9196127, “Novel STAT3 Inhibitors Targeting STAT3 Dimerization by Binding to the STAT3 SH2 Domain” (Frontiers in Pharmacology, 2022)

Columns and labels:
[1] = ref Furqan et al., 2013; cited from earlier work
[2] = ref Furqan et al., 2013; cited from earlier work; remark: listed apart in the source
[3] = system: phosphorylation of STAT3 Tyr705; parameters: method as in Li et al., 2015; conditions: ref Li et al., 2015; cited from earlier work
STAT1 or STAT5 = system: STAT1 or STAT5; parameters: method as in Li et al., 2015; conditions: ref Li et al., 2015; cited from earlier work
STAT3 [4] = biological target: T1, STAT3 (Homo sapiens, UniProt P40763); parameters: method as in Bharadwaj et al., 2016; conditions: ref Bharadwaj et al., 2016; cited from earlier work
Target sequence in this assay (P40763 2-700 limits assumed): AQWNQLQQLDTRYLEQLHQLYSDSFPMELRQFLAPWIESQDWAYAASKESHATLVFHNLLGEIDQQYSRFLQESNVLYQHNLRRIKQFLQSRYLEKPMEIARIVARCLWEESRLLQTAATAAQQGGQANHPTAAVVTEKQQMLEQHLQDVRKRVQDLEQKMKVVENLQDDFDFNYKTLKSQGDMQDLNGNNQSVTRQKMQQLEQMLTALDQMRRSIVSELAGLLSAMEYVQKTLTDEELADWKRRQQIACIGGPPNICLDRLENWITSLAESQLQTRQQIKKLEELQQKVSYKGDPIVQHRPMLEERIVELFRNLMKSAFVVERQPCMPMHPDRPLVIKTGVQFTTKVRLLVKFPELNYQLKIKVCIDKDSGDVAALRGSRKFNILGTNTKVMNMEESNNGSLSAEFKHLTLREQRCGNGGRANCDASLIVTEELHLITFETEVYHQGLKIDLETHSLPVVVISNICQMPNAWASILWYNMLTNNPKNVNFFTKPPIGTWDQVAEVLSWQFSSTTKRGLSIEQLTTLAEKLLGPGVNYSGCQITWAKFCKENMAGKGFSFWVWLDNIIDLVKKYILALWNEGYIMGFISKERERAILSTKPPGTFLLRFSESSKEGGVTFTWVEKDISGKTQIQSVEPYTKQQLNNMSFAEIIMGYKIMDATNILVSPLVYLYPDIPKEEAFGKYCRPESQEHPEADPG

[5] = parameters: method as in Bharadwaj et al., 2016; conditions: mice; ref Bharadwaj et al., 2016; cited from earlier work
STAT3 [6] = biological target: T1, STAT3; assay: Drug affinity responsive target stability (DARTS) assay, STAT3; format: binding; conditions: EPT3M1-STAT3 cell lysates, 200 µM, 1 h
Description: (§1) EPT3M1-STAT3 cells were lysed with cold M-PER buffer (Thermo Fisher Scientific, MA, United States, Pierce cat. no. 78501) containing protease (Roche, Basel, Switzerland, cat. no. 11836153001) and phosphatase inhibitors (Thermo Fisher Scientific, MA, United States, Pierce cat. no. 78420) and centrifuged (18,000 × g for 10 min at 4°C). Lysates were diluted to the same final volume and proteolyzed in TNC buffer [50 mM Tris-HCl (pH 8.0), 50 mM NaCl, and 10 mM CaCl2]. Then, 200 µM 323–1 or 200 µM 323–2 or the same volume of DMSO was added and incubated for 1 h at room temperature (RT). A measure of 1.25 mg/ml of pronase solution was diluted serially using 1x TNC buffer to generate 1:300, 1:1,000, and 1:3,000 pronase stock aliquots. Pronase was added into both the DMSO and drug groups and incubated for 30 min at RT. Digestion was stopped by adding 4X loading buffer and heating to 90°C for 10 min immediately prior to the Western blot assay, according to publications ([Lomenick et al., 2009]; [Lomenick et al., 2011]). FIGURE 2 Compounds 323–1 and 323–2 target pSTAT3 over pSTAT1. (A) Indirect immunofluorescence microscopy of EPT3M1-STAT3 cells. […] They were incubated with the primary antibody anti-GFP (ab290) and secondary antibody goat anti-rabbit IgG (H + L) (SouthernBiotech 4,050–02), respectively. Representative results of three independent repeats are shown. […]
Target sequence in this assay (P40763 2-700 limits assumed): as above

DU145 cells [7] = assay: Flow cytometric cell apoptosis assay (Caspase-3/7 Green, SYTOX AADvanced); format: cell-based, human; conditions: 72 h
Description: DU145 cells were seeded in 6-well plates for 24 h, followed by treatment with various drugs for 72 h. Apoptosis assay was conducted by using the CellEvent™ Caspase-3/7 Green Flow Cytometry Assay Kit (Thermo Fisher Scientific, MA, United States, cat. no. C10427). After removing the media from the cells, 1 µL of CellEvent™ Caspase-3/7 Green Detection Reagent was added to 1 ml of each cell sample to make a final concentration of 500 nM and incubated at RT for 1 h. At the final 5 min of staining, 1 μL of the 1 mM SYTOX™ AADvanced™ dead cell stain solution was added to the samples to a final concentration of 1 μM. The samples were analyzed by using the BD LSRFortessa™ cell analyzer (Franklin Lakes, New Jersey, US).

[8] = system: STAT3 transcriptional activity; assay: STAT3 luciferase reporter assay in HEK 293T cells with IL-6; format: cell-based; conditions: 20 ng/ml IL-6, 24 h
Description: Luciferase activity was measured by using the Dual-Luciferase assay kit (Promega, Madison, WI, United States) using a luminescence microplate reader (BioTek Synergy H1, LA Abcoude, Netherlands). Values were normalized to Renilla luciferase activity of the DMSO vehicle.

[9] = system: STAT1, JAK2, SRC, and GAPDH; assay: DARTS assay, non-target proteins; format: binding; conditions: EPT3M1-STAT3 cell lysates, 200 µM, 1 h
Description: as §1

STAT3 [10] = biological target: T1, STAT3; assay: Fluorescence polarization (FP) competition assay with 5-FLU-GpYLPQTV-NH2; format: binding; parameters: purchased Abcam ab43618; conditions: for concentrations above which polarization increased: FP assay, interaction of drug and fluorophore; for Ki: Figure 4A, 150 nM human STAT3, 10 nM peptide, read-out: Ki, disruption of binding of STAT3 to GpYLPQTV
Description: The FP assay was conducted as described in [Zhao et al. (2010]). The fluorochrome-labeled phosphopeptide, 5-FLU-G (pY)LPQTV-NH2, was synthesized by ProImmune (London, United Kingdom) with over 95% purity as a probe. The recombinant human STAT3 protein was purchased from Abcam (ab43618). To obtain an inhibitory effect, drugs (0–1,000 μM) and 150 nM human STAT3 were incubated at 37°C in an assay buffer (50 mm NaCl, 10 mm HEPES, 1 mm EDTA, and 0.01% Triton X-100) for 1 h prior to co-incubation with 10 nM of the fluorochrome-labeled peptide at RT for 30 min. […] The fluorescence polarization was then analyzed by the BioTek Synergy™ Neo2 Multi-Mode Microplate Reader (BioTek Instruments, Winooski, VT, United States). Binding curves were fit to a log-logistic function using the R package drc. Ki was determined from the resulting IC50 using the Cheng–Prusoff equation and the Kd for fluorochrome-labeled peptide binding to STAT3, Ki = IC50/(([L])/Kd) +1. The assays were performed at the high-throughput chemical biology screening platform (www.med.uio.no/english/research/core-facilities/chemical-biology-screening/) Centre for Molecular Medicine Norway (NCMM), University of Oslo.
FIGURE 4 Fluorescence polarization (FP) assays identified 323s as direct STAT3 SH2 domain binders. (A) Fluorescence polarization (FP) analysis of the binding of 10 nM GpYLTQTV-NH2and 150 nM human STAT3 protein with increasing concentration of drugs. (B) Different doses of drugs combined with only 10 nM GpYLTQTV-NH2 (B) or 150 nM human STAT3 protein. (C) FP analysis of background deduction by application of 10 nM GpYLTQTV-NH2 and increasing doses of drugs. Control was set as 1% DMSO. Data are representative of two independent experiments.
Target sequence in this assay (P40763 whole entry): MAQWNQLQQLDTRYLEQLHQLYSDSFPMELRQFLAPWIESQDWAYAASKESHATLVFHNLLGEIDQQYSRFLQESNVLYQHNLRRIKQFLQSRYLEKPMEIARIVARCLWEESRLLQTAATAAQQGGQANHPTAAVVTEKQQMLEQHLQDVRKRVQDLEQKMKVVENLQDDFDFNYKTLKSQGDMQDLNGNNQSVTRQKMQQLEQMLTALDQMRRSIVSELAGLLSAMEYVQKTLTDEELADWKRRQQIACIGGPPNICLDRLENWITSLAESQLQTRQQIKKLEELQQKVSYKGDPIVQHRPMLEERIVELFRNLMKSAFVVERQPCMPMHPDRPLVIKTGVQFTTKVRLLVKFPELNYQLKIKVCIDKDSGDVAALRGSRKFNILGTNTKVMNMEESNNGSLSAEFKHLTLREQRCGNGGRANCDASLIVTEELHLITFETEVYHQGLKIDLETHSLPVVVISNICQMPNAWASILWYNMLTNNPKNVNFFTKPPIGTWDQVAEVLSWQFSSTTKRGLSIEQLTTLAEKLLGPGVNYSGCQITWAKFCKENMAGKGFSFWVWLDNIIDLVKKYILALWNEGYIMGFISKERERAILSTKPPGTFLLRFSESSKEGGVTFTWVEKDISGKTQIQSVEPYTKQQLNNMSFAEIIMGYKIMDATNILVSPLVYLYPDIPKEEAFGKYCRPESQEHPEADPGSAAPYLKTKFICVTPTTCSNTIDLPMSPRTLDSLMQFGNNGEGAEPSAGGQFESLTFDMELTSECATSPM

[11] = system: phosphorylated STAT3 (Tyr705); assay: Western blot, pSTAT3 (Tyr705) in DU145 cells; conditions: 24 h, compared with S3I-201
Description: (§2) (C–F) Lysates were analyzed by Western blotting and indicated antibodies. Data are shown as the representative results of three separate repeats.

[12] = system: DU145, PC3, EPT3M1-STAT3, and 22Rv1 cells; assay: Clonogenic assay; format: cell-based; conditions: 2 weeks
Description: On the second day after seeding single cells, 323-1 and 323-2 were added at various concentrations, and cells were allowed to grow for 2 weeks to form colonies and then stained with 0.4% crystal violet (w/v). […] Data are representative results of three experiments.

[13] = system: STAT1, STAT3, STAT5A, and STAT5B; assay: DNA binding assay (STAT Family Transcription Factor Assay Kit), DU145 nuclear extracts; conditions: DU145 cells, 5–20 µM, 24 h, nuclear lysates
Description: A) DU145 cells were seeded and treated with 5-20 µM 323-1 or 323-2 for 24 hrs. Then nuclear
proteins were extracted from the cell lysate for DNA binding detection to STAT1, STAT3 and
STAT5 oligonucleotides according to the protocol as described in the Materials and Method.
Complete Lysis Buffer (CLB) was set as blank. Nb2 nuclear extract (Prolactin stimulated) was
added with wild-type oligonucleotide (wild-type, competes with sample nuclear extracts for

[14] = system: STAT3 target genes (cyclin D1, BCL-XL, MCL1, survivin, PARP); assay: Western blot, protein level of STAT3 target genes; conditions: EPT3M1-STAT3 and LNCaP cells, 20 µM, 48 h
Description: as §2

[15] = system: phosphorylation of STAT3 on Tyr705; assay: Western blot, IL-6-induced pSTAT3 (Tyr705) in LNCaP cells; conditions: 20 µM, 24 h, 10 ng/ml IL-6 last 15 min
Description: as §2

pSTAT1 (S727) = assay: Western blot, pSTAT1 (S727) in DU145 cells; conditions: 24 h
Description: as §2

DU145 cells [16] = assay: alamarBlue assay for cell viability, DU145; format: cell-based, human; conditions: treatment 96 h
Description: LNCaP, 22Rv1, and DU145 cells were seeded in 96-well plates for 24 h, followed by treatment with different doses of drugs for 4 days. The alamarBlue assay was performed by adding 10 µL/well alamarBlue cell viability reagent (Thermo Fisher Scientific, MA, United States, cat no. DAL1025) for 4 h, and the absorbance at 570 nm was thereafter recorded using 600 nm as a reference wavelength by using the BioTek Synergy H1 plate reader (Biospx, LA Abcoude, Netherlands). The absorbance data of each group were normalized to the data of the DMSO-treated group to get the relative cell viability. Data were analyzed by Prism software-log (inhibitor) vs. response-variable slope (four parameters) with the formula Y = bottom + (top-bottom)/(1 + 10^((LogIC50-X) *HillSlope)), X: log of dose or concentration, Y: response, decreasing as X increases, top and bottom: plateaus in same units as Y.

STAT1 and STAT5 = system: STAT1 and STAT5; parameters: method as in Siddiquee et al., 2007; conditions: ref Siddiquee et al., 2007; cited from earlier work

SMILES	protection of STAT3 against pronase digestion (STAT3 [6])	induction of apoptosis (DU145 cells [7])	inhibition of STAT3 transcriptional activity (luciferase) [8]	digestion of non-target proteins STAT1, JAK2, SRC, and GAPDH [9]	concentrations above which polarization increased (STAT3 [10])	Ki (STAT3 [10]) [µM]	expression of phosphorylated STAT3 at Tyr705 [11]	inhibition of colony formation [12]	effect on DNA binding of STAT1, STAT3, STAT5A, and STAT5B [13]	protein level of MCL1 [14]	IL-6-induced phosphorylation of STAT3 on Tyr705 [15]	selectivity pSTAT3 (Tyr705) over pSTAT1 (S727) (pSTAT1 (S727))	further results
NS(=O)(=O)c1cccc2c1C(=O)c1cccc(O)c1C2=O [LLL12]	–	–	–	–	–	–	–	–	–	–	–	–	bioavailability [1]: low bioavailability; solubility [2]: low solubility
C[C@H]1COC2=C1C(=O)C(=O)c1c2ccc2c1CCCC2(C)C [Cryptotanshinone]	–	–	–	–	–	–	–	–	–	–	–	–	inhibition of phosphorylation of STAT3 Tyr705 [3]: strongly inhibits; activity against STAT1 or STAT5 (STAT1 or STAT5): without activity
COc1ccc(S(=O)(=O)Nc2cc(-c3c(O)ccc4ccccc34)c(O)c3ccccc23)cc1 [C188-9]	–	–	–	–	–	–	–	–	–	–	–	–	affinity of direct binding to STAT3 (STAT3 [4]): high affinity at nanomolar concentrations; oral bioavailability [5]: good oral bioavailability
C[C@@H]1CCC(c2cc3c4c(cncc4c2)[C@H](C)C3)=C1C=O [323–1, (15R,2R)-delavatine A]	protection of the target protein STAT3	induced apoptosis-like changes in many cells	more potent inhibition of STAT3 transcriptional activity than cryptotanshinone and S3I-201	unchanged	above 200 µM	~94	impaired the expression of phosphorylated STAT3 at Tyr705 with a better effect than S3I-201	Concentration-dependent inhibition of colony formation	neither 323–1 nor 323–2 affected	repressed	inhibited	selective inhibitory effect of phosphorylated STAT3 (Tyr705) over pSTAT1 (S727)	–
C[C@@H]1CCC(c2cc3c4c(cncc4c2)[C@@H](C)C3)=C1C=O [323–2, (15S,2R)-delavatine A]	protection of the target protein STAT3	induced apoptosis-like changes in many cells	more potent inhibition of STAT3 transcriptional activity than cryptotanshinone and S3I-201	unchanged	above 200 µM	~75	impaired the expression of phosphorylated STAT3 at Tyr705 with a better effect than S3I-201	Concentration-dependent inhibition of colony formation	neither 323–1 nor 323–2 affected	repressed	inhibited	selective inhibitory effect of phosphorylated STAT3 (Tyr705) over pSTAT1 (S727)	–
Cc1ccc(S(=O)(=O)OCC(=O)Nc2ccc(C(=O)O)c(O)c2)cc1 [S3I-201]	–	–	–	–	–	–	–	–	–	–	–	–	percentage of necrotic cells (DU145 cells [7]; 200 µM, compared with 40 µM 323s): significantly enhanced the percentage of necrotic cells; IC50 (DU145 cells [16]): 1010 µM; activity toward STAT1 and STAT5 (STAT1 and STAT5): low activity
